In PMC11091888, “Evaluation of Fusobacterium nucleatum Enoyl-ACP Reductase (FabK) as a Narrow-Spectrum Drug Target” (ACS Infectious Diseases, 2024):
≈ marks a conversion by molar mass, not a printed value. Like-named read-outs stand apart in the source and are kept apart here.

Columns and labels:
[1] = system: E. faecalis FA2–2ΔfabI; assay: MIC against E. faecalis FA2-2 fabK+ (ΔfabI, possesses only FabK); format: cell-based, Enterococcus faecalis; settings: for MIC Ef fabK+: E. faecalis FA2-2 ΔfabI, possesses only FabK
Description: (§1) Compounds were twofold serially diluted (100–0.2 μg/mL) across a 96-well plate in 100 μL of media used for the specific organism (Table S4). For anaerobes, plates were incubated anaerobically at 37 °C for 1 h and then inoculated with approximately 10^5 to 10^6 CFU/well. Plates were incubated at 37 °C for up to 48 h, and MICs were read by visual inspection.

[2] = system: F. nucleatum 23726; assay: MIC against F. nucleatum 23726; format: cell-based, Fusobacterium nucleatum; settings: three biological replicates; for MIC Fn 23726: F. nucleatum 23726 wild-type
Description: as §1

[3] = system: E. faecalis FA2–2; assay: MIC against wild-type E. faecalis FA2-2 (FabI and FabK); format: cell-based, Enterococcus faecalis; settings: E. faecalis FA2-2, possesses both FabI and FabK
Description: as §1

[4] = system: E. faecalis FA2–2ΔfabK; assay: MIC against E. faecalis FA2-2 fabI+ (ΔfabK, possesses only FabI); format: cell-based, Enterococcus faecalis; settings: E. faecalis FA2-2 ΔfabK, possesses only FabI
Description: as §1

[5] = system: CdFabK; set-up: method as in PMID 37224699; settings: previously reported, cited from earlier work
[6] = target: FnFabK (Fusobacterium nucleatum subsp. nucleatum, UniProt Q8RGV3); assay: biochemical; settings: for IC50: IC50 against FnFabK
FnFabK, sequence (Q8RGV3 entry or part of it): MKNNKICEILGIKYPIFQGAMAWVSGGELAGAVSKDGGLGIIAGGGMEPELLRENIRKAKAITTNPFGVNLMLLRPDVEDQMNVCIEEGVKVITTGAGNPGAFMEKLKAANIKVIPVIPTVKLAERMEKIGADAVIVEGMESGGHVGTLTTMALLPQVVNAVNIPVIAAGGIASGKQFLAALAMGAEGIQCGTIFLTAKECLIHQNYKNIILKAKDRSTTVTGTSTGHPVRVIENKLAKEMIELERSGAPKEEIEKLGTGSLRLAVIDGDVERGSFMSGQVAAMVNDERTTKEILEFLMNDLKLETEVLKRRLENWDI
Description: Incubation lasted for a total of 10 min before the addition of crotonyl-CoA substrate, and the reaction was initiated by the addition of NADH for a final assay volume of 100 μL. The oxidation of NADH to NAD+ was measured by tracking fluorescence (340 nm/460 nm) with a Biotek Synergy H1 microplate reader in 15 s intervals for a total of 10 min to monitor the rate of reaction. The reaction was conducted in Greiner Bio-One 384-well μClear Bottom Polystyrene Microplates. […] Measurements were conducted in triplicate, and IC50’s were calculated via GraphPad Prism 9.1.2 using four-parameter logistic (Hill) curve analysis using equation Y = bottom + (top – bottom)/[1 + 10 (Log IC50 – X) × Hill Slope], where X is the logarithm of the dose and Y is the response. The assay concentrations of the cofactor, NADH, and substrate, crotonyl-CoA, were also determined via GraphPad Prism 9.1.2 using the substrate inhibition model to determine Km(app).

[7] = Cytotoxicity against Vero cells (resazurin viability); format: cell-based; settings: monkey, Vero epithelial cells, maximum tested concentration 100 μg/mL
Description: This was done as described[36] using colorectal carcinoma HCT116 and Vero epithelial cells cultured at 37 °C in 5% CO2 in Dulbecco’s modified Eagle’s medium (DMEM) with 4.5 g/L glucose and L-glutamine. The medium was supplemented with 10% v/v FetalGro (Rocky Mountain Biologicals). Approximately 25,000/well were aliquoted into black 96-well plates (Greiner Bio-One) and incubated overnight, before being resuspended in DMEM supplemented with 20% Gibco KnockOut Serum Replacement (Thermo Fisher Scientific). Compounds (100–1.6 μg/mL) were then added to the cells and incubated for 24 h at 37 °C and 5% CO2. Cell viability was analyzed using resazurin as described.[36]

[8] = system: F. nucleatum 23726 overexpression strains; assay: MIC against F. nucleatum 23726 transformed with empty vector, fabK or fabX under ATc-inducible promoter; format: cell-based, Fusobacterium nucleatum; settings: Fusobacterium nucleatum
Description: The transformation of F. nucleatum 23726 was performed via electroporation as previously described,[41] except that Columbia broth was used. (i) Antisense vector: F. nucleatum gene silencing vector, pHFK2, was developed by inserting the ATc inducible paired-termini antisense sequences from the clostridial vector pMSPT into pCWU6, a F. nucleatum vector.[56] pCWU6 was amplified by PCR (CloneAmp polymerase) and recombined with the BamHI and KpnI fragments of pMSPT containing the Tet promoter and paired-termini sequences.[26] Antisense nucleotides targeting either 50 bp upstream and downstream of the fabK start codon (FabKAS1) or 25 bp upstream and 75 bp downstream (FabKAS2) were cloned into SphI and XhoI restriction sites of pHFK2. (ii) Complementation vectors: these were generated by PCR amplifying the fabK promoter and gene and introducing KpnI and HindIII restriction sites at 5′ and 3′ ends, respectively. Purified PCR amplicons were inserted into the KpnI and HindIII sites of pCWU6. (iii) Overexpression vectors: the corresponding gene, fabK or fabX, was amplified via PCR, introducing HindIII or SacI restriction sites to the 5′ end, respectively. BamHI restriction sites were introduced to the 3′ end of both. Purified PCR amplicons were inserted into the respective restriction sites of pHFK2. (iv) Allelic exchange vector: vector, pCWU8-FabK, was generated using a previously described protocol,[41],[56] whereby 1-kb regions upstream and downstream of fabK were cloned into the suicide vector pCWU8 using a Gibson Assembly Cloning Kit (New England Biolabs). The recombinant vector was transformed into strain F. nucleatum 23726ΔgalK, and successful integrants were collected that were resistant to thiamphenicol (5 μg/mL). Since the suicide vector expresses GalK, which is toxic in the presence of 2-deoxy-D-galactose (2-DG), the compound 2-DG (0.25% w/v) was added to counter-select for mutants that underwent a second homologous recombination. Ten resulting colonies were then tested for deletion of fabK via PCR, using primers in Table S7. The experiment was independently performed twice for a total of 20 colonies screened for fabK deletion. All experiments were done anaerobically at 37 °C in tryptic soy broth supplemented with 1% w/v peptone and 0.25% w/v autoclaved L-cysteine hydrochloride (TSPC) or TSPC agar with thiamphenicol or 2-DG.
as §1

[9] = system: F. nucleatum 23726; assay: Growth in FAS-II inhibitor with or without exogenous fatty acids; format: cell-based, Fusobacterium nucleatum; settings: fatty acid mixture of Table S2
Description: To plates containing twofold serial dilutions of compounds, exponential phase cultures were added to a final OD600nm of 0.1. Plates containing F. nucleatum in Columbia broth were incubated at 37 °C inside of a Tecan Infinite 200 Pro, which was inside an anaerobic chamber; growth kinetics for Streptococcus spp. in brain heart infusion broth were done aerobically in the same Tecan instrument.

Structure (SMILES) | MIC Ef fabK+ [1] | MIC Fn 23726 [2] | MIC Ef wild-type [3] | MIC Ef fabI+ [4] | further results
O=C(NCc1nc(-c2ccc(Br)cc2)c[nH]1)Nc1nc2ccc(F)cc2s1 [Compound 670] | <0.1 µg/mL | 100 µg/mL (≈ 224 µM) | 100 µg/mL (≈ 224 µM) | 100 µg/mL (≈ 224 µM) | 
O=C(NCc1nc(-c2ccc(Br)cc2)c[nH]1)Nc1nc2ccc(Br)cc2s1 [Compound 671] | <0.1 µg/mL | 25 µg/mL (≈ 49.3 µM) | 50 µg/mL (≈ 98.6 µM) | 50 µg/mL (≈ 98.6 µM) | 
O=C(NCc1nc(-c2ccc(Br)cc2)c[nH]1)Nc1nc2c(F)cc(F)cc2s1 [Compound 674] | <0.1 µg/mL | 100 µg/mL (≈ 215 µM) | 100 µg/mL (≈ 215 µM) | 100 µg/mL (≈ 215 µM) | 
O=C(NCc1nc2ccccc2[nH]1)Nc1ncc(Sc2ccccn2)s1 [Compound 675] | 0.8 µg/mL (≈ 2.09 µM) | 100 µg/mL (≈ 261 µM) | 100 µg/mL (≈ 261 µM) | 100 µg/mL (≈ 261 µM) | 
O=C(NCc1nc(-c2ccccc2)n[nH]1)Nc1ncc(Sc2ccccn2)s1 [Compound 676] | 0.2 µg/mL (≈ 0.488 µM) | 100 µg/mL (≈ 244 µM) | 100 µg/mL (≈ 244 µM) | 100 µg/mL (≈ 244 µM) | 
O=C(NCc1nc(-c2ccc(Br)cc2)c[nH]1)Nc1ncc(Sc2ncccn2)s1 [Compound 679] | <0.1 µg/mL | 6.3 µg/mL (≈ 12.9 µM) | 100 µg/mL (≈ 205 µM) | 100 µg/mL (≈ 205 µM) | 
O=C(NCc1nc(-c2ccc(Br)cc2)c[nH]1)Nc1ncc(Sc2ccc3ccccc3n2)s1 [Compound 680] | <0.1 µg/mL | 100 µg/mL (≈ 186 µM) | 100 µg/mL (≈ 186 µM) | 100 µg/mL (≈ 186 µM) | 
O=C(NCc1nc(-c2ccc(Br)cc2)c[nH]1)Nc1ncc(Sc2ccc(Cl)cn2)s1 [Compound 682] | <0.1 µg/mL | 3.1 µg/mL (≈ 5.94 µM) | 100 µg/mL (≈ 192 µM) | 100 µg/mL (≈ 192 µM) | 
O=C(NCc1nc(-c2ccc(Br)cc2)c[nH]1)Nc1ncc(Sc2ncccc2C(F)(F)F)s1 [Compound 683] | <0.1 µg/mL | 3.1 µg/mL (≈ 5.58 µM) | 100 µg/mL (≈ 180 µM) | 100 µg/mL (≈ 180 µM) | 
O=C(NCc1nc(-c2ccc(Br)cc2)c[nH]1)Nc1ncc(Sc2ccc(C(F)(F)F)cn2)s1 [Compound 684] | <0.1 µg/mL | 3.1 µg/mL (≈ 5.58 µM) | 100 µg/mL (≈ 180 µM) | 100 µg/mL (≈ 180 µM) | 
O=C(NCc1nc(-c2ccc(Br)cc2)c[nH]1)Nc1nc2cc(Cl)ccc2s1 [Compound 689] | <0.1 µg/mL | 6.3 µg/mL (≈ 13.6 µM) | 25 µg/mL (≈ 54 µM) | 25 µg/mL (≈ 54 µM) | 
CCOc1ccc2sc(NC(=O)NCc3nc(-c4ccc(Br)cc4)c[nH]3)nc2c1 [Compound 690] | <0.1 µg/mL | 25 µg/mL (≈ 52.9 µM) | 25 µg/mL (≈ 52.9 µM) | 25 µg/mL (≈ 52.9 µM) | 
O=C(NCc1nc(-c2ccc(Br)cc2)c[nH]1)Nc1nc2ccccc2s1 [Compound 701] |  |  |  |  | MIC ([1]; Enterococcus faecalis, read-out: MIC Ef fabK+, E. faecalis FA2-2 ΔfabI, possesses only FabK): < 0.1 µg/mL; MIC ([2]; Fusobacterium nucleatum, 23726, F. nucleatum 23726 wild-type, read-out: MIC Fn 23726): 1.6 µg/mL (≈ 3.74 µM); IC50 against CdFabK, equivalent concentration [5]: 0.8 µg/mL; IC50 ([5]; read-out: IC50 against CdFabK): 1.88 µM; IC50 ([6]; equivalent concentration, conversion of the μM value): 10.7 µM; IC50 ([6]; purified FnFabK, three replicates): 10.6 µM; Hill coefficient (FnFabK inhibition) ([6]; four-parameter logistic fit): 1.06; MIC ([3]; Enterococcus faecalis, read-out: MIC Ef wild-type): 100 µg/mL (≈ 233 µM)
O=C(NCc1nc(-c2ccc(Br)cc2)c[nH]1)Nc1ncc(Sc2ccc(Br)cc2)s1 [Compound 702] | <0.1 µg/mL | 100 µg/mL (≈ 177 µM) | 100 µg/mL (≈ 177 µM) | 100 µg/mL (≈ 177 µM) | 
O=C(NCc1nc(-c2ccc(Br)cc2)c[nH]1)Nc1ncc(Sc2nc3ccccc3s2)s1 [Compound 703] | <0.1 µg/mL | 100 µg/mL (≈ 184 µM) | 100 µg/mL (≈ 184 µM) | 100 µg/mL (≈ 184 µM) | 
COc1cccc2c1C(=O)c1c(O)c3c(c(O)c1C2=O)C[C@@](O)(C(=O)CO)C[C@@H]3O[C@H]1C[C@H](N)[C@H](O)[C@H](C)O1 [doxorubicin, reference compound] |  |  |  |  | IC50 at 24 h [7]: 8.1 ± 1 µg/mL (≈ 14.9 µM)
C=C/C(C)=C/[C@@]1(C)SC(=O)C(C)=C1O [thiolactomycin, reference compound] |  |  |  |  | MIC ([8]; read-out: MIC, FabK overexpression, induced): 3.9 µg/mL; MIC ([8]; read-out: MIC, FabK overexpression, uninduced): 7.8 µg/mL; MIC ([8]; read-out: MIC, FabX overexpression, induced): 3.9 µg/mL; MIC ([8]; read-out: MIC, FabX overexpression, uninduced): 7.8 µg/mL; MIC ([8]; read-out: MIC, empty vector, induced): 7.8 µg/mL; MIC ([8]; read-out: MIC, empty vector, uninduced): 7.8 µg/mL; Effect of exogenous fatty acids on growth inhibition of F. nucleatum [9]: did not rescue
